This note sets out measurements from patent US20240174634A1, “Aldehyde Dehydrogenase Inhibitors and Their Therapeutic Use” (priority 2020, published 2024).

This assay deals with T1, ALDH1A3 (Homo sapiens, UniProt P47895).
T1 sequence (P47895 1-512): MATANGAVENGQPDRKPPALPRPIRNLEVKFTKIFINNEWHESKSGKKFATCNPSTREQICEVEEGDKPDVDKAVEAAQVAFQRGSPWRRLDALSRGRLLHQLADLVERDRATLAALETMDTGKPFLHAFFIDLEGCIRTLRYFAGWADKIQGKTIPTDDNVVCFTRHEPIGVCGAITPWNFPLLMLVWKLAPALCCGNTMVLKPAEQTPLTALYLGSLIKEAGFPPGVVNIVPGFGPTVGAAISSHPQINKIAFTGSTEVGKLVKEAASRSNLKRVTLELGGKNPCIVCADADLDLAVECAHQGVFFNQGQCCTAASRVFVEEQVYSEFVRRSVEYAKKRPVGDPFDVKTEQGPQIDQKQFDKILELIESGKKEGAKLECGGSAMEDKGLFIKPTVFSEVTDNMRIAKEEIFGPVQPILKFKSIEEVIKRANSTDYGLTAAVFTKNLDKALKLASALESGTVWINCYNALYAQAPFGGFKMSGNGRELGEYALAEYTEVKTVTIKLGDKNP
As to the kind of experiment: Primary biochemical assay, NAD(P)H-Glo Detection System. Also noted: His-tag; made in house; host or cells: E. coli Rosetta (DE3). As to conditions: 30 min pre-incubation, propionaldehyde and NAD at Km. The gist of the method: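 Recombinant full-length His-tagged human enzymes expressed in E. coli were pre-incubated 30 min at room temperature with compound (10-point, 3-fold series; top 20 μM for ALDH1A3, 250 μM for ALDH1A1/1A2). Propionaldehyde and NAD were then added at Km; NADH was read by NAD(P)H-Glo luminescence. Buffer: Tris (pH 7.6 for 1A1/1A2, 9.0 for 1A3), 1 mM TCEP, 0.01% Tween-20.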
One may read the IC50 as the concentration needed to halve the response being measured. `CC1(c2ccccc2)COCCN1CCOc1ccc2c(c1)CCC(=O)N2` (stereo not shown) [ALDHI-2040, 6-[2-(3-methyl-3-phenyl-morpholin-4-yl)ethoxy]-3,4-dihydro-1H-quinolin-2-one] yielded an IC50 of 100 to 1000 nM. Under `CCC1Oc2cc(OCCN3CCCC3c3cccc(F)c3)ccc2NC1=O` (stereo not shown) [ALDHI-2045, 2-ethyl-7-[2-[2-(3-fluorophenyl)pyrrolidin-1-yl]ethoxy]-4H-1,4-benzoxazin-3-one] stands under 100 nM; under `O=C1CCc2cc(OCCN3CC(F)(F)CC3c3cccc(F)c3)ccc2N1` (stereo not shown) [ALDHI-2053, 6-[2-[4,4-difluoro-2-(3-fluorophenyl)pyrrolidin-1-yl]ethoxy]-3,4-dihydro-1H-quinolin-2-one], under 100 nM; under `O=C1CCc2cc(OCCN3CC(F)CC3c3cccc(F)c3)ccc2N1` (stereo not shown) [ALDHI-2052, 6-[2-[4-fluoro-2-(3-fluorophenyl)pyrrolidin-1-yl]ethoxy]-3,4-dihydro-1H-quinolin-2-one], under 100 nM. Under `O=C1CCc2cc(OCCN3CCCC3c3cccnc3)ccc2N1` (stereo not shown) [ALDHI-2005, 6-[2-[2-(3-pyridyl)pyrrolidin-1-yl]ethoxy]-3,4-dihydro-1H-quinolin-2-one] stands under 100 nM; under `O=C1CCc2cc(NC(=O)c3sc(N4CCOCC4)nc3-c3cccc(F)c3)ccc2N1` [ALDHI-1001, 4-(3-fluorophenyl)-2-morpholino-N-(2-oxo-3,4-dihydro-1H-quinolin-6-yl)thiazole-5-carboxamide], under 100 nM. As for `O=C1CCc2cc(NC(=O)c3scnc3-c3cccs3)ccc2N1` [ALDHI-1023, N-(2-oxo-3,4-dihydro-1H-quinolin-6-yl)-4-(2-thienyl)thiazole-5-carboxamide], the figure is under 100 nM; as for `Cc1ccc(C2CCCN2CCOc2ccc3c(c2)CCC(=O)N3)cn1` (stereo not shown) [ALDHI-2030, 6-[2-[2-(6-methyl-3-pyridyl)pyrrolidin-1-yl]ethoxy]-3,4-dihydro-1H-quinolin-2-one], 100 to 1000 nM; as for `CC1(C)Oc2cc(OCCN3CCCC3c3cccc(F)c3)ccc2NC1=O` (stereo not shown) [ALDHI-2043, 7-[2-[2-(3-fluorophenyl)pyrrolidin-1-yl]ethoxy]-2,2-dimethyl-4H-1,4-benzoxazin-3-one], 100 to 1000 nM. Regarding `COc1cccc(C2CCCN2CCOc2ccc3c(c2)CCC(=O)N3)c1` (stereo not shown) [ALDHI-2034, 6-[2-[2-(3-methoxyphenyl)pyrrolidin-1-yl]ethoxy]-3,4-dihydro-1H-quinolin-2-one], the IC50 was in the range of 100 to 1000 nM. Under `O=C1CCc2cc(NC(=O)c3ncsc3-c3ccsc3)ccc2N1` [ALDHI-1011, N-(2-oxo-3,4-dihydro-1H-quinolin-6-yl)-5-(3-thienyl)thiazole-4-carboxamide] stands 100 to 1000 nM. As for `O=C1COc2cc(OCCN3CCCC3c3cccc(F)c3)ccc2N1` (stereo not shown) [ALDHI-2009, 7-[2-[2-(3-fluorophenyl)pyrrolidin-1-yl]ethoxy]-4H-1,4-benzoxazin-3-one], the figure is 100 to 1000 nM; as for `O=C1CCc2cc(OCCN3CCCC3c3ccncc3)ccc2N1` (stereo not shown) [ALDHI-2004, 6-[2-[2-(4-pyridyl)pyrrolidin-1-yl]ethoxy]-3,4-dihydro-1H-quinolin-2-one], 100 to 1000 nM. As for `O=C1CCc2cc(OCCN3CCC[C@@H]3c3cccc(F)c3)ccc2N1` [ALDHI-2007, 6-[2-[(2R)-2-(3-fluorophenyl)pyrrolidin-1-yl]ethoxy]-3,4-dihydro-1H-quinolin-2-one], the figure is under 100 nM; as for `O=C1CCc2cc(OCCN3CCCC3c3cccc(F)c3)c(F)cc2N1` (stereo not shown) [ALDHI-2050, 7-fluoro-6-[2-[2-(3-fluorophenyl)pyrrolidin-1-yl]ethoxy]-3,4-dihydro-1H-quinolin-2-one], under 100 nM. Turning to `O=C1CCc2cc(NC(=O)c3ocnc3-c3cccc(F)c3)ccc2N1` [ALDHI-1019, 4-(3-fluorophenyl)-N-(2-oxo-3,4-dihydro-1H-quinolin-6-yl)oxazole-5-carboxamide], the IC50 is 100 to 1000 nM.

Regarding `O=C1CCc2cc(OCCN3C(=O)CCC3c3ccccc3)ccc2N1` (stereo not shown) [ALDHI-2051, 6-[2-(2-oxo-5-phenyl-pyrrolidin-1-yl)ethoxy]-3,4-dihydro-1H-quinolin-2-one], the IC50 was under 100 nM. `O=C1CSc2cc(OCCN3CCCC3c3cccc(F)c3)ccc2N1` (stereo not shown) [ALDHI-2008, 7-[2-[2-(3-fluorophenyl)pyrrolidin-1-yl]ethoxy]-4H-1,4-benzothiazin-3-one] displayed an IC50 of under 100 nM. Under `Cc1nc(C2CCCN2CCOc2ccc3c(c2)CCC(=O)N3)cs1` (stereo not shown) [ALDHI-2033, 6-[2-[2-(2-methylthiazol-4-yl)pyrrolidin-1-yl]ethoxy]-3,4-dihydro-1H-quinolin-2-one] stands 100 to 1000 nM; under `O=C1CCc2cc(OCCN3CCCC3c3cccc(F)c3)ccc2N1` (stereo not shown) [ALDHI-2001, 6-[2-[2-(3-fluorophenyl)pyrrolidin-1-yl]ethoxy]-3,4-dihydro-1H-quinolin-2-one], under 100 nM.

In the case of `O=C1CCc2cc(OCCN3CCCC3c3cccs3)ccc2N1` (stereo not shown) [ALDHI-2013, 6-[2-[2-(2-thienyl)pyrrolidin-1-yl]ethoxy]-3,4-dihydro-1H-quinolin-2-one], the IC50 is under 100 nM. As for `O=C1CCc2cc(NC(=O)c3scnc3-c3ccccc3F)ccc2N1` [ALDHI-1021, 4-(2-fluorophenyl)-N-(2-oxo-3,4-dihydro-1H-quinolin-6-yl)thiazole-5-carboxamide], the figure is under 100 nM.
